# Assay results published in US7951956B2, “Benzoimidazole compound capable of inhibiting prostaglandin D synthetase” (Taiho Pharmaceuticals Co., Ltd., priority 2005, dated 2011).
# Experiments:
# [1] = biological target: human hematopoietic synthase (Homo sapiens, UniProt O60760); assay: Hematopoietic synthase inhibitory activity (Experiment 1); format: biochemical; settings: [14C] prostaglandin H2 10 μM, preincubated at 25° C. for 5 minutes, 1 minute reaction; read-out: Concentration of Pharmaceutical Compound Required to Inhibit 50% of Hematopoietic Synthase
# human hematopoietic synthase, sequence (O60760 whole entry): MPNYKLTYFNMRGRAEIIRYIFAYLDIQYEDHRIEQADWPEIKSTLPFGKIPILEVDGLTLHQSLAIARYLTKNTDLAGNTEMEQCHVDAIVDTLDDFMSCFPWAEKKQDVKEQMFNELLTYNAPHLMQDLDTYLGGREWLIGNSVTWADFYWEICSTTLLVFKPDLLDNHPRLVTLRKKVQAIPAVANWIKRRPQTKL
# Method: Experiment 1 was carried out according to the method of Urade, Y. et al. (J. Biol. Chem. 262, 3820-3825, (1987)). More specifically, the reaction mixture (49 μL); 100 mM Tris-HCl (pH 8.0), 1 mM reduced glutathione, 0.1 mg/mL γ-globulin, and human hematopoietic synthase (quantum sufficient), and a test compound (final concentration: 0.01-100 μM) were preincubated at 25° C. for 5 minutes. In place of the test compound, a DMSO solution (final concentration: 1%) was used in the solvent control group (Control Group). Subsequently, 1 μL of [^14C] prostaglandin H2 (final concentration: 10 μM) was added to start the reaction. One minute after the start of the reaction, 250 μL of a reaction stopper solution (diethylether/methanol/1M citric acid (30/4/1) cooled to −20° C. was added to stop the reaction.
# Thereafter, 50 μL of the upper layer portion (organic solvent phase) was applied to a TLC plate and developed at −20° C. for 45 minutes (developer: diethylether/methanol/acetic acid (capacity ratio=90/2/1)). After drying the plate, the plate was exposed to an imaging plate for 1 to 24 hours, and the radioactivity corresponding to prostaglandin D2 was analyzed using an image analyzer (product of FUJIFILM Corporation). The area (%) occupied by the prostaglandin D2 band per lane was calculated, and the concentration of the test compound required to inhibit 50% of the hematopoietic synthase (IC50 value) was calculated by comparison with the Control group in each experiment.
melting point [°C],IC50 [1] [nM],SMILES
224 to 229,,"O=C(c1ccccc1)c1ccc2[nH]c(-c3ccc(P(=O)(O)O)o3)nc2c1 (hydrate or solvate) [Comparative Example 3, 5-Benzophenone-2-(2-phosphono-5-furanyl)benzimidazole dihydrate]"
203 to 208,796,"Cc1coc(C)c1-c1nc2cc(C(=O)c3ccccc3)ccc2[nH]1 [Compound 1, 5-Benzoyl-2-(2,4-dimethylfuran-3-yl)-benzimidazole]"
143 to 146,274,"Cc1oc(C(N)=O)c(C)c1-c1nc2cc(C(=O)c3ccccc3)ccc2[nH]1 [Compound 2, 4-(5-Benzoylbenzimidazol-2-yl)-3,5-dimethylfuran-2-carboxamide]"
239 to 241,1450,"O=C(c1ccccc1)c1ccc2[nH]c(-c3c[nH]c(C(=O)O)c3)nc2c1 [Compound 5, 4-(5-Benzoylbenzimidazol-2-yl)-pyrrole-2-carboxylic acid]"
160 to 162,1740,"O=C(c1ccccc1)c1ccc2[nH]c(-c3c[nH]c(C(=O)N4CCCC4)c3)nc2c1 [Compound 6, ((4-(5-Benzoylbenzimidazol-2-yl)-pyrrol-2-yl)-carbonyl)pyrrolidine]"
207 to 214,588,"Cc1c[nH]c(C)c1-c1nc2cc(C(=O)c3ccccc3)ccc2[nH]1 [Compound 7, 2-(2,4-Dimethyl-pyrrol-3-yl)-5-benzoylbenzimidazole]"
253 to 255,,"Cc1[nH]c(C=O)c(C)c1-c1nc2cc(C(=O)c3ccccc3)ccc2[nH]1 [Compound 8, 2-(2-Formyl-3,5-dimethyl-pyrrol-4-yl)-5-benzoylbenzimidazole]"
201 to 203,110,"Cc1[nH]c(/C=C/C#N)c(C)c1-c1nc2cc(C(=O)c3ccccc3)ccc2[nH]1 [Compound 9, 2-(2-Acrylonitrile-3,5-dimethyl-pyrrol-4-yl)-5-benzoylbenzimidazole]"
256 to 258,304,"Cc1[nH]c(C(=O)NCCC(=O)O)c(C)c1-c1nc2cc(C(=O)c3ccccc3)ccc2[nH]1 [Compound 21, N-(2-Carboxyethyl)-4-(5-benzoylbenzimidazol-2-yl)-3,5-dimethylpyrrole-2-carboxamide]"
,1670,"CCOC(=O)C1CCN(C(=O)c2[nH]c(C)c(-c3nc4cc(C(=O)c5ccccc5)ccc4[nH]3)c2C)CC1 [Compound 44, ((4-(5-Benzoylbenzimidazol-2-yl)-3,5-dimethylpyrrol-2-yl)-carbonyl)-4-ethoxycarbonylpiperidine]"
267 to 271,643,"Cc1[nH]c(C(=O)N2CCC(C(=O)O)CC2)c(C)c1-c1nc2cc(C(=O)c3ccccc3)ccc2[nH]1 [Compound 45, ((4-(5-Benzoylbenzimidazol-2-yl)-3,5-dimethylpyrrol-2-yl)-carbonyl)piperidine-4-carboxylic acid]"
258 to 260,758,"Cc1[nH]c(C(=O)N2CCC(C(=O)NCCN(C)C)CC2)c(C)c1-c1nc2cc(C(=O)c3ccccc3)ccc2[nH]1 [Compound 46, N-Dimethylaminoethyl-1-((4-(5-benzoylbenzimidazol-2-yl)-3,5-dimethylpyrrol-2-yl)-carbonyl)piperidine-4-carboxamide]"
,269,"Cc1[nH]c(C(=O)N2CCC(C(=O)N(C)CCN(C)C)CC2)c(C)c1-c1nc2cc(C(=O)c3ccccc3)ccc2[nH]1 [Compound 47, N-Methyl-N-(2-dimethylaminoethyl)-1-((4-(5-benzoylbenzimidazol-2-yl)-3,5-dimethylpyrrol-2-yl)-carbonyl)piperidine-4-carboxamide]"
,124,"Cc1[nH]c(C(=O)N2CCC(C(=O)NCCCN(C)C)CC2)c(C)c1-c1nc2cc(C(=O)c3ccccc3)ccc2[nH]1 [Compound 48, N-(3-Dimethylaminopropyl)-1-((4-(5-benzoylbenzimidazol-2-yl)-3,5-dimethylpyrrol-2-yl)-carbonyl)piperidine-4-carboxamide]"
,649,"COCCCNC(=O)C1CCN(C(=O)c2[nH]c(C)c(-c3nc4cc(C(=O)c5ccccc5)ccc4[nH]3)c2C)CC1 [Compound 49, N-(3-Methoxypropyl)-1-((4-(5-benzoylbenzimidazol-2-yl)-3,5-dimethylpyrrol-2-yl)-carbonyl)piperidine-4-carboxamide]"
,843,"Cc1[nH]c(C(=O)N2CCC(C(=O)NCC3CCCCC3)CC2)c(C)c1-c1nc2cc(C(=O)c3ccccc3)ccc2[nH]1 [Compound 50, N-Cyclohexylmethyl-1-((4-(5-benzoylbenzimidazol-2-yl)-3,5-dimethylpyrrol-2-yl)-carbonyl)piperidine-4-carboxamide]"
128 to 133,,"O=C(c1ccccc1)c1ccc2nc(-c3ccc[nH]3)[nH]c2c1 [Compound 51, 5-Benzoyl-2-(pyrrol-2-yl)-benzimidazole]"
225 to 229,4800,"Cc1cc(C)c(-c2nc3cc(C(=O)c4ccccc4)ccc3[nH]2)[nH]1 [Compound 52, 5-Benzoyl-2-(3,5-dimethylpyrrol-2-yl)-benzimidazole]"

melting point [°C],IC50 [1] [nM],SMILES
185 to 187,3080,"CCOC(=O)c1c(C)[nH]c(-c2nc3cc(C(=O)c4ccccc4)ccc3[nH]2)c1C [Compound 53, 5-(5-Benzoylbenzimidazole-2-yl)-2,4-dimethylpyrrole-3-carboxylic acid ethyl ester]"
,4780,"CN(C)Cc1ccc(-c2nc3cc(C(=O)c4ccccc4)ccc3[nH]2)o1 [Compound 56, 2-(5-Dimethylaminomethyl-furan-2-yl)-5-benzoylbenzimidazole]"
,2370,"O=C(c1ccccc1)c1ccc2[nH]c(-c3ccc(Br)o3)nc2c1 [Compound 58, 2-(5-Bromo-furan-2-yl)-5-benzoylbenzimidazole]"
,3560,O=C(c1ccccc1)c1ccc2[nH]c(-c3ccc(C(=O)N4CCCC4)o3)nc2c1 [Compound 59]
,4360,"NC(=O)c1ccc(-c2nc3cc(C(=O)c4ccccc4)ccc3[nH]2)o1 [Compound 60, 5-(5-Benzoylbenzimidazol-2-yl)-furan-2-carboxamide]"
,2430,"O=C(c1ccccc1)c1ccc2[nH]c(-c3ccc(C(=O)NCc4ccc5c(c4)OCO5)o3)nc2c1 [Compound 62, N-(3,4-Methylenedioxyphenylmethyl)-5-(5-benzoylbenzimidazol-2-yl)-furan-2-carboxamide]"
,1250,O=C(c1ccccc1)c1ccc2[nH]c(-c3ccc(C(=O)N4CCSC4)o3)nc2c1 [Compound 63]
,377,"Cc1[nH]c(C(=O)N(C)C)c(C)c1-c1nc2cc(C(=O)c3ccccc3)ccc2[nH]1 [Compound 64, (N,N-Dimethyl)-4-(5-benzoylbenzimidazol-2-yl)-3,5-dimethylpyrrole-2-carboxamide]"
,124,"Cc1[nH]c(C(=O)N(C)O)c(C)c1-c1nc2cc(C(=O)c3ccccc3)ccc2[nH]1 [Compound 65, (N-Hydroxy-N-methyl)-4-(5-benzoylbenzimidazol-2-yl)-3,5-dimethylpyrrole-2-carboxamide]"
,77,"CNC(=O)c1[nH]c(C)c(-c2nc3cc(C(=O)c4ccccc4)ccc3[nH]2)c1C [Compound 66, (N-Methyl)-4-(5-benzoylbenzimidazol-2-yl)-3,5-dimethylpyrrole-2-carboxamide]"
,870,"Cc1[nH]c(C(=O)N2CCOCC2)c(C)c1-c1nc2cc(Oc3ccccc3)ccc2[nH]1 [Compound 71, ((4-(5-Phenoxybenzimidazole-2-yl)-3,5-dimethylpyrrol-2-yl)-2-carbonyl)morpholine]"
,209,"Cc1[nH]c(C(=O)NCCc2ccccn2)c(C)c1-c1nc2cc(Oc3ccccc3)ccc2[nH]1 [Compound 72, N-(2-(2-Pyridyl)ethyl)-4-(5-phenoxybenzimidazole-2-yl)-3,5-dimethylpyrrole-2-carboxamide]"
,240,"CONC(=O)c1[nH]c(C)c(-c2nc3cc(Oc4ccccc4)ccc3[nH]2)c1C [Compound 73, N-(Methoxy)-4-(5-phenoxybenzimidazole-2-yl)-3,5-dimethylpyrrole-2-carboxamide]"
,263,"CON(C)C(=O)c1[nH]c(C)c(-c2nc3cc(Oc4ccccc4)ccc3[nH]2)c1C [Compound 74, (N-Methoxy-N-methyl)-4-(5-phenoxybenzimidazole-2-yl)-3,5-dimethylpyrrole-2-carboxamide]"
,218,"Cc1[nH]c(C#N)c(C)c1-c1nc2cc(Oc3ccccc3)ccc2[nH]1 [Compound 75, 2-(2-Cyano-3,5-dimethylpyrrol-4-yl)-5-phenoxybenzimidazole]"
,109,"Cc1oc(C(N)=O)c(C)c1-c1nc2cc(Oc3ccccc3)ccc2[nH]1 [Compound 76, 4-(5-Phenoxybenzimidazole-2-yl)-3,5-dimethylfuran-2-carboxamide]"
,24400,"c1ccc(C(OC2CCN(CCCc3nnn[nH]3)CC2)c2ccccc2)cc1 [HQL-79, 4-benzhydryloxy-1-((3-(1H-tetrazol-5-yl)-propyl))piperidine, reference compound]"
